Experiment: xn = mol fraction of the nth substance listed
Conditions: Liquid; for speed of sound: 101 kPa, Sing-around technique in a fixed-path interferometer; for mass density: 101.3 kPa, Vibrating tube method

CCCCCC(C)=O [2-heptanone] + CCN(CC)CC
Conditions	mass density [kg/m3]	speed of sound [m/s]
293.15 K, x1 = 0.0636	733.182	1141.8
293.15 K, x1 = 0.1061	737.185	1148.4
293.15 K, x1 = 0.1585	741.934	1156
293.15 K, x1 = 0.2077	746.426	1163.5
293.15 K, x1 = 0.2536	750.6	1170.4
293.15 K, x1 = 0.3091	755.621	1178.7
293.15 K, x1 = 0.3614	760.322	1186.6
293.15 K, x1 = 0.4043	764.18	1193.1
293.15 K, x1 = 0.4621	769.325	1201.9
293.15 K, x1 = 0.5022	772.887	1208
293.15 K, x1 = 0.5577	777.79	1216.3
293.15 K, x1 = 0.6078	782.199	1223.9
293.15 K, x1 = 0.6604	786.734	1231.8
293.15 K, x1 = 0.7001	790.167	1237.8
293.15 K, x1 = 0.749	794.387	1245
293.15 K, x1 = 0.7968	798.46	1252.1
293.15 K, x1 = 0.8517	803.051	1260.2
293.15 K, x1 = 0.9008	807.18	1267.3
293.15 K, x1 = 0.9507	811.366	1274.7
298.15 K, x1 = 0.0574	727.994	1119.4
298.15 K, x1 = 0.105	732.47	1126.8
298.15 K, x1 = 0.1619	737.667	1135.5
298.15 K, x1 = 0.2068	741.77	1142.1
298.15 K, x1 = 0.2598	746.582	1150.2
298.15 K, x1 = 0.3075	750.925	1157.5
298.15 K, x1 = 0.3578	755.443	1165.2
298.15 K, x1 = 0.4081	759.984	1172.9
298.15 K, x1 = 0.4548	764.166	1180.1
298.15 K, x1 = 0.5032	768.476	1187.5
298.15 K, x1 = 0.5545	773.017	1195.4
298.15 K, x1 = 0.6103	777.928	1204
298.15 K, x1 = 0.6579	782.088	1211.3
298.15 K, x1 = 0.6994	785.697	1217.6
298.15 K, x1 = 0.7484	789.941	1225.1
298.15 K, x1 = 0.8031	794.633	1233.3
298.15 K, x1 = 0.8576	799.228	1241.5
298.15 K, x1 = 0.9014	802.909	1247.9
298.15 K, x1 = 0.9462	806.662	1254.6
303.15 K, x1 = 0.0612	723.838	1100.1
303.15 K, x1 = 0.1056	727.95	1106.8
303.15 K, x1 = 0.1602	732.935	1115.1
303.15 K, x1 = 0.2068	737.166	1122.2
303.15 K, x1 = 0.2606	742.09	1130.5
303.15 K, x1 = 0.3086	746.453	1137.9
303.15 K, x1 = 0.3583	750.968	1145.7
303.15 K, x1 = 0.4082	755.492	1153.5
303.15 K, x1 = 0.4553	759.737	1160.8
303.15 K, x1 = 0.5042	764.098	1168.4
303.15 K, x1 = 0.5983	772.43	1183.1
303.15 K, x1 = 0.6536	777.279	1191.6
303.15 K, x1 = 0.7031	781.622	1199.3
303.15 K, x1 = 0.7452	785.267	1205.8
303.15 K, x1 = 0.8088	790.717	1215.5
303.15 K, x1 = 0.8489	794.102	1221.5
303.15 K, x1 = 0.9007	798.491	1229.2
303.15 K, x1 = 0.9503	802.71	1235.8

CCCCNCCCC [dibutylamine] + CCCCCC(C)=O
Conditions	mass density [kg/m3]	speed of sound [m/s]
293.15 K, x2 = 0.064	762.405	1261.7
293.15 K, x2 = 0.1633	767.21	1263
293.15 K, x2 = 0.2061	769.239	1263.4
293.15 K, x2 = 0.2606	772.046	1264.5
293.15 K, x2 = 0.4493	781.952	1267.8
293.15 K, x2 = 0.5094	785.255	1269.1
293.15 K, x2 = 0.644	792.949	1272.1
293.15 K, x2 = 0.7511	799.387	1274.7
293.15 K, x2 = 0.9018	808.899	1278.8
298.15 K, x2 = 0.0624	758.343	1241.7
298.15 K, x2 = 0.1107	760.603	1242.2
298.15 K, x2 = 0.2097	765.511	1243.8
298.15 K, x2 = 0.3613	773.119	1246.3
298.15 K, x2 = 0.4049	775.426	1247.1
298.15 K, x2 = 0.4499	777.849	1248
298.15 K, x2 = 0.5496	783.354	1250.2
298.15 K, x2 = 0.6482	789.026	1252.5
298.15 K, x2 = 0.7509	795.166	1255.1
298.15 K, x2 = 0.7987	798.112	1256.4
298.15 K, x2 = 0.8986	804.449	1259.3
298.15 K, x2 = 0.9488	807.773	1261
303.15 K, x2 = 0.1122	756.507	1223.3
303.15 K, x2 = 0.1605	758.79	1223.9
303.15 K, x2 = 0.2587	763.614	1225.3
303.15 K, x2 = 0.3597	768.787	1227.2
303.15 K, x2 = 0.4096	771.421	1228.2
303.15 K, x2 = 0.4986	776.259	1230.1
303.15 K, x2 = 0.6478	784.736	1233.7
303.15 K, x2 = 0.747	790.673	1236.3
303.15 K, x2 = 0.7997	793.928	1237.9
303.15 K, x2 = 0.852	797.226	1239.4
303.15 K, x2 = 0.8984	800.193	1240.8

CCCNCCC [dipropylamine] + CCCCCC(C)=O
Conditions	mass density [kg/m3]	speed of sound [m/s]
293.15 K, x2 = 0.0603	743.175	1213.9
293.15 K, x2 = 0.1045	746.717	1217.2
293.15 K, x2 = 0.1559	750.817	1221
293.15 K, x2 = 0.2013	754.413	1224.3
293.15 K, x2 = 0.2526	758.468	1228.1
293.15 K, x2 = 0.2936	761.7	1231.1
293.15 K, x2 = 0.3492	766.042	1235.2
293.15 K, x2 = 0.4579	774.494	1243
293.15 K, x2 = 0.493	777.204	1245.6
293.15 K, x2 = 0.5494	781.554	1249.6
293.15 K, x2 = 0.5894	784.624	1252.6
293.15 K, x2 = 0.6478	789.087	1256.9
293.15 K, x2 = 0.6896	792.266	1259.9
293.15 K, x2 = 0.7615	797.717	1265.1
293.15 K, x2 = 0.8025	800.833	1268
293.15 K, x2 = 0.8139	801.69	1268.8
293.15 K, x2 = 0.8993	808.079	1275
293.15 K, x2 = 0.948	811.684	1278.4
298.15 K, x2 = 0.0521	738.054	1191.8
298.15 K, x2 = 0.1048	742.273	1196
298.15 K, x2 = 0.1557	746.324	1199.8
298.15 K, x2 = 0.2	749.853	1203.2
298.15 K, x2 = 0.2526	754.005	1207.1
298.15 K, x2 = 0.2962	757.449	1210.4
298.15 K, x2 = 0.3436	761.173	1213.9
298.15 K, x2 = 0.385	764.422	1217
298.15 K, x2 = 0.4478	769.307	1221.7
298.15 K, x2 = 0.5427	776.662	1228.8
298.15 K, x2 = 0.6003	781.222	–
298.15 K, x2 = 0.6436	784.41	1236.4
298.15 K, x2 = 0.69	787.95	1239.8
298.15 K, x2 = 0.7418	791.892	1243.6
298.15 K, x2 = 0.8061	796.768	1248.5
298.15 K, x2 = 0.8548	800.432	1252
298.15 K, x2 = 0.8993	803.773	1255.3
298.15 K, x2 = 0.9528	807.724	1259.1
303.15 K, x2 = 0.0578	733.883	1172.1
303.15 K, x2 = 0.1054	737.733	1175.8
303.15 K, x2 = 0.1579	741.943	1179.9
303.15 K, x2 = 0.2005	745.356	1183.2
303.15 K, x2 = 0.2497	749.277	1187.1
303.15 K, x2 = 0.2951	752.865	1190.6
303.15 K, x2 = 0.3476	756.998	1194.7
303.15 K, x2 = 0.3856	759.993	1197.7
303.15 K, x2 = 0.4504	765.062	1202.6
303.15 K, x2 = 0.5442	772.346	1209.8
303.15 K, x2 = 0.5891	775.815	1213.4
303.15 K, x2 = 0.642	779.872	1217.3
303.15 K, x2 = 0.687	783.319	1220.8
303.15 K, x2 = 0.7413	787.465	1225
303.15 K, x2 = 0.7994	791.897	1229.4
303.15 K, x2 = 0.8564	796.191	1233.7
303.15 K, x2 = 0.8993	799.423	1236.9
303.15 K, x2 = 0.9497	803.188	1240

Reference: the NIST ThermoML archive (doi:10.1016/j.jct.2011.05.003)
